Test results reported in the NIST ThermoML archive (doi:10.1021/acs.jced.7b00650).

Conditions: Liquid; for viscosity: Capillary tube (Ostwald / Ubbelohde) method; for mass density: Vibrating tube method

CCCCCCCC [octane]
Conditions	mass density [kg/m3]	viscosity [mPa·s]
293.21 K, 1996 kPa	703.76	0.5512
293.21 K, 8004 kPa	709.25	0.5874
293.21 K, 13010 kPa	713.21	0.6183
293.21 K, 30002 kPa	725.54	0.7285
293.22 K, 3994 kPa	705.71	0.5631
293.22 K, 6001 kPa	707.57	0.5752
293.22 K, 10009 kPa	710.88	0.5997
293.22 K, 16009 kPa	715.43	0.6371
293.22 K, 19011 kPa	717.57	0.6566
293.22 K, 22012 kPa	719.76	0.6759
293.22 K, 25004 kPa	721.88	0.6954
293.22 K, 28004 kPa	724.19	0.7152
313.1 K, 5999 kPa	692.07	0.4593
313.1 K, 19006 kPa	703.5	0.5234
313.1 K, 21998 kPa	706.05	0.5385
313.1 K, 25000 kPa	708.39	0.5539
313.1 K, 27998 kPa	710.67	0.5694
313.1 K, 30001 kPa	712.15	0.5798
313.11 K, 2007 kPa	688.27	0.4402
313.11 K, 4000 kPa	690.26	0.4497
313.11 K, 7997 kPa	693.85	0.469
313.11 K, 10009 kPa	695.59	0.4788
313.11 K, 13005 kPa	698.26	0.4935
313.11 K, 16009 kPa	700.84	0.5083
333 K, 22003 kPa	691.91	0.4414
333.01 K, 2005 kPa	672.19	0.3601
333.01 K, 3993 kPa	674.49	0.3681
333.01 K, 5998 kPa	676.69	0.3761
333.01 K, 8014 kPa	678.82	0.3841
333.01 K, 10007 kPa	680.8	0.3921
333.01 K, 13004 kPa	683.6	0.4043
333.01 K, 16002 kPa	686.47	0.4166
333.01 K, 19006 kPa	689.24	0.4289
333.01 K, 25006 kPa	694.49	0.4539
333.01 K, 28003 kPa	696.99	0.4666
333.01 K, 30012 kPa	698.61	0.4751
353.12 K, 2008 kPa	655.38	0.2974
353.12 K, 3999 kPa	657.99	0.3043
353.12 K, 6000 kPa	660.5	0.3112
353.12 K, 8001 kPa	663.11	0.3181
353.12 K, 10006 kPa	665.45	0.325
353.12 K, 19000 kPa	674.99	0.3563
353.12 K, 22003 kPa	677.96	0.3669
353.12 K, 25005 kPa	680.81	0.3775
353.12 K, 28008 kPa	683.56	0.3882
353.12 K, 30004 kPa	685.34	0.3954
353.13 K, 13003 kPa	668.83	0.3354
353.13 K, 16004 kPa	672.05	0.3458

CCCCC [pentane]
Conditions	mass density [kg/m3]	viscosity [mPa·s]
293.21 K, 2000 kPa	628.05	0.232
293.21 K, 3998 kPa	630.31	0.2382
293.21 K, 6000 kPa	632.63	0.2439
293.21 K, 8003 kPa	634.89	0.2495
293.21 K, 13008 kPa	640.02	0.2637
293.21 K, 30000 kPa	655.38	0.31
293.22 K, 10008 kPa	636.91	0.2551
293.22 K, 16007 kPa	643	0.2719
293.22 K, 19009 kPa	645.81	0.2806
293.22 K, 22010 kPa	648.59	0.2885
293.22 K, 25002 kPa	651.19	0.2967
293.22 K, 28002 kPa	653.72	0.3046
313.1 K, 2005 kPa	608.49	0.1968
313.1 K, 6001 kPa	613.99	0.2075
313.1 K, 7999 kPa	616.58	0.2126
313.1 K, 10005 kPa	619.09	0.218
313.1 K, 13001 kPa	622.65	0.2259
313.1 K, 16005 kPa	626.03	0.2334
313.1 K, 19002 kPa	629.28	0.2409
313.1 K, 22002 kPa	632.38	0.2485
313.1 K, 25004 kPa	635.4	0.2558
313.1 K, 28002 kPa	638.2	0.2628
313.1 K, 30005 kPa	640.09	0.2676
313.11 K, 4002 kPa	611.31	0.2023
333.01 K, 2009 kPa	587.87	0.1679
333.01 K, 3997 kPa	591.4	0.1737
333.01 K, 6002 kPa	594.59	0.1787
333.01 K, 8008 kPa	597.69	0.1837
333.01 K, 10001 kPa	600.61	0.1888
333.01 K, 12998 kPa	604.82	0.1958
333.01 K, 15996 kPa	608.78	0.2029
333.01 K, 19000 kPa	612.5	0.21
333.01 K, 21997 kPa	616.1	0.217
333.01 K, 25000 kPa	619.39	0.2239
333.01 K, 27997 kPa	622.68	0.2306
333.01 K, 30006 kPa	624.71	0.2348
353.12 K, 2006 kPa	565.77	0.1452
353.12 K, 3997 kPa	570.01	0.1504
353.12 K, 6002 kPa	574.02	0.1557
353.12 K, 8003 kPa	577.79	0.1606
353.12 K, 10008 kPa	581.28	0.1654
353.12 K, 13000 kPa	586.31	0.1724
353.12 K, 16001 kPa	590.9	0.1792
353.12 K, 18997 kPa	595.21	0.1857
353.12 K, 25002 kPa	603.1	0.1987
353.12 K, 28005 kPa	606.77	0.2047
353.12 K, 30001 kPa	609.1	0.2087
353.13 K, 22000 kPa	599.29	0.1922
